The target of series [1] is T1, Receptor-interacting serine/threonine-protein kinase 1 (Homo sapiens, UniProt Q13546).
T1 sequence (Q13546 whole entry): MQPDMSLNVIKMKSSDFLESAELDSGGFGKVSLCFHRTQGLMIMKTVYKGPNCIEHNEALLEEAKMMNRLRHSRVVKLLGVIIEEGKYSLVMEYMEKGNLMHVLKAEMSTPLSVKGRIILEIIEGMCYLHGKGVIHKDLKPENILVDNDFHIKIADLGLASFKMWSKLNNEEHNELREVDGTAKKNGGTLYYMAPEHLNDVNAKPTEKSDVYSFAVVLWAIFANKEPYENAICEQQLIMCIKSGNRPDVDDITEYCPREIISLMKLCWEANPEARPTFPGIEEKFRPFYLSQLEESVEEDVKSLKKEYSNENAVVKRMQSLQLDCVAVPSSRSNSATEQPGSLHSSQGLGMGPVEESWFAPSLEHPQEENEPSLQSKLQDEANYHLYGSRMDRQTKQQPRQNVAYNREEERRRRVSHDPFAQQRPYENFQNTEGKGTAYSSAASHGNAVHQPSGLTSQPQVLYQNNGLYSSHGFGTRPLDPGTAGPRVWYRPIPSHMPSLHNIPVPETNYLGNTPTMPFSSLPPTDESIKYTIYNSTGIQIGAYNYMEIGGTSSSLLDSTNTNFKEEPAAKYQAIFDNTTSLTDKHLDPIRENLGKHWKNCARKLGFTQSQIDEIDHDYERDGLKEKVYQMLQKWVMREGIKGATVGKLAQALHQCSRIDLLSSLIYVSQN
The series can be described thus: Inhibition of RIPK1 (unknown origin) in presence of ATP by kinaseProfiler assay.

The test system of the next series is HT-29. The series is described as follows: Anti-necroptosis activity against TSZ-induced human HT-29 cells. The series is classed as functional, cell-based.
The subject of the next series is U-937. The series is described as follows: Anti-necroptosis activity against TSZ-induced human U-937 cells. The series is classed as functional, cell-based.
For the next series, the system named is L929. The series can be described thus: Anti-necroptosis activity against TSZ-induced mouse L929 cells. The series is classed as functional, cell-based.
Series [2] is described as follows: Metabolic stability in cryopreserved human liver microsome assessed as half life. The note with it: cryopreserved liver microsomes. The series is classed as ADME. (Liver microsomes are vesicles of endoplasmic reticulum, rich in cytochrome P450 enzymes.)

SMILES strings stand for the structures.

Broadly, the IC50 is the concentration needed to halve the response being measured. What is called EC50 is the midpoint of the concentration-response curve. A low value points to a more potent agent. Broadly, the half-life is the time in which the quantity being followed falls by half. With `Nc1n[nH]c(=O)c2c1c(-c1ccc3c(c1)CCN3C(=O)Cc1cccc(OC(F)(F)F)c1)nn2CC1CCCC1`, the concentration for half-maximal inhibition (IC50) in series [1] came out at 0.0959 µM. Further, the EC50 with HT-29 was determined as 0.0157 µM; in the series with U-937, 0.0127 µM; in the series on L929, 0.00395 µM. Moreover, the half-life in series [2] worked out at 49.9 min.

As for `CC1(Cn2nc(-c3ccc4c(c3)CCN4C(=O)Cc3cccc(OC(F)(F)F)c3)c3c(N)n[nH]c(=O)c32)COC1`, in series [1], the half-inhibitory concentration (IC50) stood at 0.0798 µM. The EC50 in the series with HT-29 amounted to 0.00557 µM; in the series on U-937, 0.0039 µM; in the series on L929, 0.00185 µM. For the same compound, the half-life in series [2] worked out at 13.2 min.

`Nc1n[nH]c(=O)c2c1c(-c1ccc3c(c1)CCN3C(=O)Cc1cccc(OC(F)(F)F)c1)nn2Cc1ccccc1`: the IC50 in series [1] worked out at 0.149 µM. The results for the EC50 in the series with HT-29, in the series with U-937 and with L929 were 0.108 µM, 0.117 µM and 0.0143 µM, respectively. Besides, the half-life in series [2] worked out at 28.2 min.

With `CC1(Cn2nc(-c3ccc4c(c3)CCN4C(=O)Cc3cccc(OC(F)(F)F)c3)c3c(N)n[nH]c(=O)c32)CC1`, the IC50 in series [1] came out at 0.0987 µM. Moreover, the results for the EC50 in the series with HT-29, with U-937 and in the series with L929 were 0.0375 µM, 0.0102 µM and 0.0132 µM, respectively. In addition, the half-life in series [2] was 26.4 min.

For `Nc1n[nH]c(=O)c2c1c(-c1ccc3c(c1)CCN3C(=O)Cc1cccc(OC(F)(F)F)c1)nn2CC(F)F`, the IC50 in series [1] stood at 0.0845 µM. The figures for the EC50 in the series with HT-29, in the series with U-937 and in the series with L929 were 0.016 µM, 0.0146 µM and 0.00984 µM, respectively. In series [2], the half-life worked out at 31.9 min.

`CC(C)n1nc(-c2ccc3c(c2)CCN3C(=O)Cc2cccc(OC(F)(F)F)c2)c2c(N)n[nH]c(=O)c21`: the half-maximal inhibitory concentration (IC50) in series [1] is 0.0661 µM. For the same compound, the half-maximal effective concentration (EC50) was 0.00773 µM with HT-29, 0.0173 µM with U-937 and 0.00147 µM with L929. In addition, the half-life in series [2] is 26.8 min.

As for `Nc1n[nH]c(=O)c2c1c(-c1ccc3c(c1)CCN3C(=O)Cc1cccc(OC(F)(F)F)c1)cn2CC1CC1`, the concentration for half-maximal inhibition (IC50) in series [1] stood at 0.109 µM. Further, the half-maximal effective concentration (EC50) in the series on HT-29 came to 0.00578 µM; in the series on U-937, 0.00368 µM; with L929 it was 0.00162 µM. Further, the half-life in series [2] is > 120 min.

Regarding `CCC1(Cn2nc(-c3ccc4c(c3)CCN4C(=O)Cc3cccc(OC(F)(F)F)c3)c3c(N)n[nH]c(=O)c32)COC1`, the IC50 in series [1] amounted to 0.0816 µM. Further, the EC50 amounted to 0.0184 µM in the series with HT-29, 0.00464 µM with U-937 and 0.00667 µM with L929. In addition, in series [2], the half-life is 16.5 min.

`CC(C)Cn1nc(-c2ccc3c(c2)CCN3C(=O)Cc2cccc(OC(F)(F)F)c2)c2c(N)n[nH]c(=O)c21`: the 50% inhibitory concentration (IC50) in series [1] worked out at 0.133 µM. Further, the EC50 in the series on HT-29 was 0.00619 µM; in the series on U-937 it was 0.00975 µM; with L929 it was 0.00136 µM. For the same compound, in series [2], the half-life is 18.1 min.

Regarding `CCCn1nc(-c2ccc3c(c2)CCN3C(=O)Cc2cccc(OC(F)(F)F)c2)c2c(N)n[nH]c(=O)c21`, in series [1], the IC50 is 0.12 µM. Also, the results for the 50% effective concentration (EC50) in the series with HT-29, with U-937 and in the series with L929 were 0.00684 µM, 0.00046 µM and 0.00142 µM, respectively. Also, the half-life in series [2] was found to be 21.1 min.

On to `CC1(Cn2cc(-c3ccc4c(c3)CCN4C(=O)Cc3cccc(C(F)(F)F)c3)c3c(N)n[nH]c(=O)c32)COC1`, for which the half-maximal inhibitory concentration (IC50) in series [1] turned out to be 0.0487 µM. Further, the concentration for a half-maximal effect (EC50) turned out to be 0.033 µM in the series on HT-29, 0.022 µM with U-937 and 0.00158 µM in the series on L929. Besides, the half-life in series [2] was determined as 85.6 min.

For `COCCn1nc(-c2ccc3c(c2)CCN3C(=O)Cc2cccc(OC(F)(F)F)c2)c2c(N)n[nH]c(=O)c21`, the IC50 in series [1] is 0.0805 µM. Besides, the half-maximal effective concentration (EC50) in the series on HT-29 came to 0.00445 µM; with U-937, 0.00829 µM; in the series on L929, 0.00108 µM. The half-life in series [2] was found to be 17.8 min.

As to `CC(C)(C)c1ccc(Cn2nc(-c3ccc4c(c3)CCN4C(=O)Cc3cccc(OC(F)(F)F)c3)c3c(N)n[nH]c(=O)c32)cc1`, the 50% inhibitory concentration (IC50) in series [1] is > 1 µM. Also, the EC50 with HT-29 was > 1 µM; with U-937, > 1 µM; in the series on L929, 0.659 µM.

The values are drawn from ChEMBL document CHEMBL5518188, “Discovery of 4-amino-1,6-dihydro-7H-pyrrolo[2,3-d]pyridazin-7-one derivatives as potential receptor-interacting serine/threonine-protein kinase 1 (RIPK1) inhibitors” (Eur J Med Chem, 2024).
